{"source": "patent US20260098030A1", "about": "“NEGATIVE ALLOSTERIC MODULATORS OF METABOTROPIC GLUTAMATE RECEPTOR 2” (Vanderbilt University, priority 2022, published 2026)", "key": {"[1]": {"test_system": "Dutch APP transgenic mice", "details": "cited from earlier work"}, "rat mGlu2": {"target": "T1, rat mGlu2 (Rattus norvegicus, UniProt P31421)", "T1 construct": "expressed in transfected cells; host or cells: HEK-293 cells stably co-expressing GIRK channels", "T1 sequence (P31421 19-872)": "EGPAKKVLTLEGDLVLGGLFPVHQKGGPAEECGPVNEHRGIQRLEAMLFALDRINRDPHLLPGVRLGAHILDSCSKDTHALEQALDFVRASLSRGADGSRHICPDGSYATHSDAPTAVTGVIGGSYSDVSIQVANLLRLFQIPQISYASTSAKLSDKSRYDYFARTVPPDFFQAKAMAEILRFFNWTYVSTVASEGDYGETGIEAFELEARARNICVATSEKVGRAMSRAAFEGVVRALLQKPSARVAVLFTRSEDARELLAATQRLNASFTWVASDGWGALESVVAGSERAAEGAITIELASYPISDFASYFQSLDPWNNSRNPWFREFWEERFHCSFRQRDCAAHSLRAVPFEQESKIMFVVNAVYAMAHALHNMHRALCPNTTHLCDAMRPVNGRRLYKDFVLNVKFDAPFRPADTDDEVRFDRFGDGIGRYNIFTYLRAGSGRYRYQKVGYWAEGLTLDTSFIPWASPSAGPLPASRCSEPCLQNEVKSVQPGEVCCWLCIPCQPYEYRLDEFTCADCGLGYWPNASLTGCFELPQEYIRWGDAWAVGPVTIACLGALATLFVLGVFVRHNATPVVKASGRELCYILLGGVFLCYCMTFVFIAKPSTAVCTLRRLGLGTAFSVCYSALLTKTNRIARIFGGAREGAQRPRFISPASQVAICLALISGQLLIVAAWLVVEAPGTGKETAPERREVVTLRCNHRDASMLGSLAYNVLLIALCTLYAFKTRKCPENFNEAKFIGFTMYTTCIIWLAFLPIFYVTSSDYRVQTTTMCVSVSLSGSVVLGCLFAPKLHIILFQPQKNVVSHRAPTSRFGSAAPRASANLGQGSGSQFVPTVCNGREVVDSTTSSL", "test": "mGlu GIRK cell-based thallium flux assay, rat mGlu2", "details": "HEK-293 cells co-expressing rat mGlu2 and GIRK, EC80 glutamate", "method_in_brief": "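HEK-293 cells stably co-expressing GIRK with human mGlu3, human mGlu2 or rat mGlu2 were loaded 1 h at 25° C with Thallos dye, then given compound (30 μM to 1.5 nM final, 10-point) for 2 min 20 s before EC80 glutamate plus thallium. Baseline-corrected fluorescence slope, normalized to ECmax glutamate, fitted to 4-parameter logistic for IC50.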"}, "Rat mGlu3": {"target": "Rat mGlu3 (UniProt P31422)", "test": "mGlu GIRK cell-based thallium flux assay, mGlu3", "details": "HEK-293 cells co-expressing mGlu3 and GIRK, EC80 glutamate"}, "mouse": {"test_system": "mouse", "details": "normal animals; cited from earlier work"}, "[2]": {"test_system": "central mGlu2 and mGlu3 receptors", "details": "in vivo; cited from earlier work"}, "mGlu2": {"test_system": "mGlu2", "details": "cited from earlier work"}, "mice": {"test_system": "mice", "details": "cited from earlier work"}, "Helpless (H) mice": {"test_system": "Helpless (H) mice", "details": "cited from earlier work; for activity in the tail suspension test: Helpless (H) mice; for antidepressant effect in helpless mice: LY341495 acute administration, fluoxetine chronic (21 days) treatment"}, "rat": {"test_system": "rat", "details": "normal animals; cited from earlier work"}, "C57B16/J mice": {"test_system": "C57B16/J mice", "details": "cited from earlier work"}, "[3]": {"test_system": "olfactory bulbectomized rats", "details": "repeated administration for 14 days; cited from earlier work"}, "[4]": {"test_system": "social isolation-reared mice", "details": "cited from earlier work"}, "[5]": {"details": "treatment for 7 days; cited from earlier work"}, "[6]": {"details": "in vivo; cited from earlier work"}}}
{"smiles": "CCCCCCCOC(=O)[C@@]1(F)[C@@H]2C[C@@H](OCc3ccc(Cl)c(Cl)c3)[C@@](N)(C(=O)O)[C@@H]21", "note": "[BCI-838]", "values": [{"measurement": "duration of inhibition of group II mGlu receptors by brain concentration of active metabolite BCI-632", "setting": "[1]; once-daily oral dosing", "result": 22, "unit": "h"}, {"measurement": "learning and memory impairment", "setting": "[1]; three months of treatment, Dutch APP transgene", "result": "reversed Dutch APP transgene-associated learning and memory impairment"}, {"measurement": "anxiolytic effects", "setting": "[1]; three months of treatment", "result": "provided anxiolytic effects"}, {"measurement": "levels of monomeric and oAβ peptides in the hippocampus and cortex", "setting": "[1]; three months of treatment, two AD mouse models", "result": "decreased the levels of monomeric and oAβ peptides"}, {"measurement": "hippocampal progenitor cell proliferation", "setting": "[1]; wild-type and Alzheimer's diseased mice, 3 months", "result": "stimulated hippocampal progenitor cell proliferation"}]}
{"smiles": "O=C1NCc2cc(-c3cnc4[nH]ccc4c3)c(-c3ccc(F)cc3F)cc21", "note": "[Compound 87, 6-(2,4-difluorophenyl)-5-(1H-pyrrolo[2,3-b]pyridin-5-yl)isoindolin-1-one]", "values": [{"measurement": "IC50", "setting": "rat mGlu2", "result": 618, "unit": "nM"}, {"measurement": "IC50", "setting": "Rat mGlu3", "result": "> 10000", "unit": "nM"}]}
{"smiles": "Cc1cc(C#N)cc(-c2cc3c(cc2-c2ccc(F)cc2F)C(=O)NC3)c1", "note": "[Compound 91, 3-(6-(2,4-difluorophenyl)-1-oxoisoindolin-5-yl)-5-methylbenzonitrile]", "values": [{"measurement": "IC50", "setting": "rat mGlu2", "result": 697, "unit": "nM"}, {"measurement": "IC50", "setting": "Rat mGlu3", "result": "> 10000", "unit": "nM"}]}
{"smiles": "N#Cc1cccc(-c2cc3c(cc2-c2ccc(F)cc2F)C(=O)NC3)c1F", "note": "[Compound 94, 3-(6-(2,4-difluorophenyl)-1-oxoisoindolin-5-yl)-2-fluorobenzonitrile]", "values": [{"measurement": "IC50", "setting": "rat mGlu2", "result": 477, "unit": "nM"}, {"measurement": "IC50", "setting": "Rat mGlu3", "result": "> 10000", "unit": "nM"}]}
{"smiles": "Cc1ccc(C#N)cc1-c1cc2c(cc1-c1ccc(F)cc1F)C(=O)NC2", "note": "[Compound 96, 3-(6-(2,4-difluorophenyl)-1-oxoisoindolin-5-yl)-4-methylbenzonitrile]", "values": [{"measurement": "IC50", "setting": "rat mGlu2", "result": 585, "unit": "nM"}, {"measurement": "IC50", "setting": "Rat mGlu3", "result": "> 10000", "unit": "nM"}]}
{"smiles": "Cc1cc(-c2cc3c(cc2-c2ccc(F)cc2F)C(=O)NC3)c(C#N)n1C", "note": "[Compound 98, 3-(6-(2,4-difluorophenyl)-1-oxoisoindolin-5-yl)-1,5-dimethyl-1H-pyrrole-2-carbonitrile]", "values": [{"measurement": "IC50", "setting": "rat mGlu2", "result": 136, "unit": "nM"}, {"measurement": "IC50", "setting": "Rat mGlu3", "result": 2620, "unit": "nM"}]}
{"smiles": "COc1cncc(-c2cc3c(cc2-c2ccc(F)cc2F)C(=O)NC3)c1", "note": "[Compound 101, 6-(2,4-difluorophenyl)-5-(5-methoxypyridin-3-yl)isoindolin-1-one]", "values": [{"measurement": "IC50", "setting": "rat mGlu2", "result": 534, "unit": "nM"}, {"measurement": "IC50", "setting": "Rat mGlu3", "result": "> 10000", "unit": "nM"}]}
{"smiles": "O=C1NCc2cc(-c3ccn(C4CC4)n3)c(-c3ccc(F)cc3F)cc21", "note": "[Compound 108, 5-(1-cyclopropyl-1H-pyrazol-3-yl)-6-(2,4-difluorophenyl)isoindolin-1-one]", "values": [{"measurement": "IC50", "setting": "rat mGlu2", "result": 347, "unit": "nM"}, {"measurement": "IC50", "setting": "Rat mGlu3", "result": 4790, "unit": "nM"}]}
{"smiles": "N[C@](CC1c2ccccc2Oc2ccccc21)(C(=O)O)[C@H]1C[C@@H]1C(=O)O", "note": "[LY341495]", "values": [{"measurement": "antidepressant-like effects in mouse tail-suspension test", "setting": "mouse", "result": "Antidepressant-like effects"}, {"measurement": "hypolocomotor effect of mGlu2/3 agonist (LY379268)", "setting": "[2]", "result": "achieved the same result"}, {"measurement": "Aβ-induced neurodegeneration", "setting": "mGlu2", "result": "this effect was prevented"}, {"measurement": "marble-burying behavior", "setting": "mice", "result": "significantly reduce marble-burying behavior"}, {"measurement": "activity in the tail suspension test", "setting": "Helpless (H) mice", "result": "active"}, {"measurement": "antidepressant effect in helpless mice", "setting": "Helpless (H) mice", "result": "potent antidepressant effect"}, {"measurement": "antidepressant-like effects in rat forced swim test", "setting": "rat", "result": "Antidepressant-like effects"}, {"measurement": "immobility time in the FST", "setting": "C57B16/J mice", "result": "dose-dependently reduced immobility time"}]}
{"smiles": "CCS(=O)(=O)N(Cc1cccnc1)c1cccc(-c2ccc(C#N)cc2)c1", "note": "[LY566332]", "values": [{"measurement": "Aβ-induced neurodegeneration", "setting": "mGlu2", "result": "amplified Aβ-induced neurodegeneration"}]}
{"smiles": "N[C@]1(C(=O)O)[C@H]2[C@@H](C[C@H]1OCc1ccc(Cl)c(Cl)c1)[C@]2(F)C(=O)O", "note": "[MGS0039]", "values": [{"measurement": "antidepressant-like effects in mouse tail-suspension test", "setting": "mouse", "result": "Antidepressant-like effects"}, {"measurement": "hyperactivity in the open field test", "setting": "[3]", "result": "attenuated the hyperactivity"}, {"measurement": "learning deficit in the passive avoidance test", "setting": "[3]", "result": "attenuated the learning deficit"}, {"measurement": "marble-burying behavior", "setting": "mice", "result": "reduced marble-burying behavior in a significant and dose dependent manner"}, {"measurement": "spontaneous locomotor activity", "setting": "mice", "result": "no significant change"}, {"measurement": "immobility in the FST", "setting": "[4]", "result": "reversed the increased immobility"}, {"measurement": "number of escape failures, learned helplessness test", "setting": "[5]", "result": "significantly reduced the number of escape failures"}, {"measurement": "freezing behavior, CFS model", "setting": "[6]", "result": "significantly decreased freezing behavior"}, {"measurement": "antidepressant-like effects in rat forced swim test", "setting": "rat", "result": "Antidepressant-like effects"}]}
{"smiles": "Cc1cc(-c2cccc(C3=Nc4cc(C)c(C(F)(F)F)cc4NC(=O)C3)c2)cc(C)n1", "note": "[RO4491533]", "values": [{"measurement": "hypolocomotor effect of mGlu2/3 agonist (LY379268)", "setting": "[2]", "result": "reversed the hypolocomotor effect"}, {"measurement": "activity in the tail suspension test", "setting": "Helpless (H) mice", "result": "active"}, {"measurement": "immobility time in the FST", "setting": "C57B16/J mice", "result": "dose-dependently reduced immobility time"}]}
{"smiles": "CNCCC(Oc1ccc(C(F)(F)F)cc1)c1ccccc1", "note": "(centres unmarked) [fluoxetine]", "values": [{"measurement": "antidepressant effect in helpless mice", "setting": "Helpless (H) mice", "result": "full antidepressant effect"}]}
